Converted amounts (≈) assume the structure as drawn. Blank lines part the entries; values can stand above or below the molecule they belong to. No end group written: not given here.
How the values were obtained:
physchem = format: physicochemical
Description: This oligopeptide was synthesized in the form of the trifluoroacetic acid salt using an Applied Biosystem 431A peptide synthesizer, on an HMP resin (Applied Biosystem) and according to an FMOC strategy. After the synthesis, the peptide was released from the resin by treatment for 90 minutes in the presence of 1/19 water/TFA solution. After filtration, the solution is concentrated on a rotary evaporator and the peptide is then precipitated twice, by addition of tert-butyl methyl ether, from a solution in TFA. The final pellet is washed with tert-butyl methyl ether and then dried. The peptide is dissolved in 5 ml of water, filtered and purified by reverse-phase HPLC on a C18 100 A column (Biorad RSL). The peptide is purified by with the aid of a gradient of 0 to 25% of acetonitrile, 0.07% TFA in water 0.07% TFA. The purity of the peptide obtained is greater than 95% and its solubility in water is 100 mg/ml.
This oligopeptide was synthesized in the form of the trifluoroacetic acid salt according to the procedure described above, using 2/40/3/1/2 (v/v) water/TFA/phenol/ethanedithiol/thioanisole solution for the cleavage. The purity of the peptide obtained is greater than 95% and its solubility in water is 100 mg/ml at pH 2.1.
These oligopeptides are synthesized in the form of the trifluoroacetic acid salts according to the procedure described above. To do this, the resin is divided into two batches. A first batch intended for the synthesis of H is treated for the cleavage with 40/3/1/2/2 (v/v) TFA/phenol/ethanedithiol/thioanisole/water solution. The purity of the peptide obtained is greater than 90% and its solubility in water is 10 mg/ml at pH 2.1. The synthesis is continued on the second batch of resin so as to obtain nls-βAla-H. The cleavage solution used is identical to the previous one. The purity of the peptide obtained is greater than 95% and its solubility in water is 10 mg/ml at pH 2.1.

NIH3T3 cells [1] = assay: Variation of compound/DNA ratio in the presence of lipopolyamine A, luciferase activity; format: cell-based; conditions: Compound/DNA ratio 0
Description: (§1) 1. A mixture of 10 μl composed of the following is prepared:
0.55 μg of pCNV-luc plasma DNA and a compound according to the invention, in the ratio indicated, in 150 mM NaCl buffer solution,
1,3-bis (3-aminopropylamino) -2-propyl (dioctadecyl-carbamoylmethoxy)acetate in the charge ratios indicated.
(§2) 2. 5·10^4 cells from NIH3T3 lines are incubated with the above mixture at 37° C., under an atmosphere of 5% CO2 for 4 hours. The cells are then washed and recultured for 48 hours in a medium containing 10% serum (DMEM 10% SVF). The cell carpet is then lysed, 45 hours after the transfection, in 100 μl of lysis buffer (Promega), recovered and then centrifuged at 20,000 g for 5 minutes. The luciferase activity is measured on 10 μl of the supernatant, adding 50 μl of substrate (Promega). The reading is taken on a Berthold lumat 9501® luminometer, cumulating the RLUs (relative light units) over 10 seconds.

[2] = tested on: tumours of type 3LL (Lewis Lung carcinoma); assay: In vivo transfer into tumour cells (3LL tumours), luciferase activity; design: species or system mice; conditions: no peptide
Description: The corresponding tests are carried out on adult (>8 weeks) female C57/BL mice carrying tumours of type 3LL (Lewis Lung carcinoma) obtained by passing fragments of tumour from animal to animal, implanted under the skin of the flank.
As regards the solutions injected, they are prepared as follows: the DNA is first dissolved in the buffer, the peptide is then optionally added and, after 20 minutes, a solution of cationic lipids at high concentration (20 or 40 mM) is added to the mixture. After addition of all these products, the mixture contains, besides the DNA, the peptide and the cationic lipid, 150 mM NaCl, 5% D-glucose and 5 mM MES pH 6.2. In the case of the last two series with lipopolyamine C (RPR 120 535), the injection vehicle is 75 mM NaCl and 150 mM NaCl, 5% D-glucose respectively. The injection is made 20 to 30 minutes after the solution has been prepared.
Each transfecting composition (see Tables 9 and 10 for their respective specificities) is injected into the tumour 7 days after implantation, the mouse being anaesthetized with a ketamine 130 mg/kg+xylazine (4 mg/kg) mixture.
Two days after the injection, the tumour tissue is removed, weighed and then chopped up and ground in 500 μl of lysis buffer (Promega cell lysis buffer E153 A). After centrifugation (20,000 g for 10 minutes), 10 μl are taken and used to evaluate the luciferase activity by measuring the total light emission obtained after mixing with 50 μl of reagent (Promega luciferase assay substrate) in a Lumat LB 9501 luminometer (Berthold), with integration over 10 seconds.
The resulting activity is expressed as RLUs (relative light units) estimated in the entire tumour lysis supernatant, or as RLU per μg of DNA injected.

3LL cells = assay: In vitro transfer of nucleic acid into 3LL cells, luciferase activity; format: cell-based; conditions: 0.5 μg DNA, 0.5 μg peptide, 75 mM NaCl
Description: A mixture of 10 μl composed of the following is prepared: 0.5 μg of pCMV-luc plasmid DNA, 0.5 μg of PR1 or PR2 a compound according to the invention, in a solution of 75 mM NaCl final lipopolyamine C (RPR 120535) in charge ratios as indicated in each of the tests listed in Table 11 below. 1×10^5 3LL cells (in 250 μl of DMEM culture medium with 10% foetal calf serum) are incubated with the above mixture at 37° C. under a 5% CO2 atmosphere for 4 hours. 500 μl of culture medium are added and the cells are recultured. The following day, the cells are washed and recultured for 24 hours in the same medium containing 10% foetal calf serum. The cell carpet is then lysed in 100 μl of lysis buffer (Promega). The luciferase activity is measured by adding 50 μl of substrate (Promega). The reading is taken on an LB luminometer by cumulating the RLUs (relative light nits) over 10 seconds.

NIH 3T3 cells = assay: in vitro transfer of nucleic acid into NIH 3T3 cells with DOGS (luciferase activity); format: cell-based; conditions: 0.25 μg compound
Description: as §1
0.5 μg of pCMV-luc plasma DNA, 0.25 μg of a compound according to the invention, in a buffer solution as identified,
40 mM dioctadecylamidoglycylspermine (DOGS) in charge ratios X as indicated in each of the tests. 2. 5·10^4 cells from the NIH3T3 lines are incubated with the above mixture at 37° C., under an atmosphere of 5% CO2 for 4 hours. The cells are then washed and recultured for 48 hours in a medium containing 10% serum (DMEM 10% SVF).
The cell carpet is then lysed in 50 μl of lysis buffer (Promega), recovered and then centrifuged at 20,000 g for 5 minutes.
The luciferase activity is measured on 4 μl of supernatant by adding 20 μl of substrate (Promega). The reading is taken on a LKB luminometer, cumulating the RLUs (relative light units) over 20 seconds.
3. Compaction in 150 mM NaCl, 10 mM HEPES* (* N-(2-hydroxyethyl)piperazine-N'-(2-ethanesulphonic acid) at pH 7.1
4. Compaction in 5% D-glucose, 150 mM NaCl, with 10 mM HEPES (pH of the compaction solution: 7.2)

NIH3T3 cells [3] = assay: Variation of compound/DNA ratio in the presence of DOGS, luciferase activity; format: cell-based; conditions: PEP/DNA w/v 0 (no peptide); DOGS charge ratio 1.8x; 0.75 μg DNA
Description: as §1
0.75 μg of pCMV-luc plasma DNA and a compound according to the invention in the ratio indicated, in 5% D-glucose, 150 mM NaCl buffer solution, with 10 mM HEPES (pH of the compaction solution: 7.2),
40 mM dioctadecylamidoglycylspermine (DOGS) in a charge ratio of 1.8×.
as §2, with “2. 4·10^5” for “2. 5·10^4”, “on 5” for “on 10”, “adding 25” for “adding 50”, “on an LKB” for “on a Berthold lumat 9501®”, “over 20” for “over 10”

Molecule: CCCCCCCCCCCCCCCCCCN(CCCCCCCCCCCCCCCCCC)C(=O)COCC(=O)OC(CNCCCN)CNCCCN [lipopolyamine A, d,1-3-bis(3-aminopropylamino)-2-propyl (dioctadecyl-carbamoylmethoxy)acetate]
luciferase activity (NIH3T3 cells [1]; lipopolyamine A 3x): 8.9 10^6 RLU
luciferase activity (NIH3T3 cells [1]; lipopolyamine A 6x): 6.2 10^6 RLU
luciferase activity (NIH3T3 cells [1]; lipopolyamine A NH2/DNA phosphates 1.8x): 3.9 10^6 RLU
Result, RLU/tumour average ([2]; 7.5 μg DNA/tumour, 0.5 μg/μl, cationic lipid A 3 nmol/μg DNA): 88 712 RLU/tumour
Result, RLU/tumour average ([2]; 20 μg DNA/tumour, 2 μg/μl, cationic lipid A 1.8 nmol/μg DNA): 142 300 RLU/tumour
Result, RLU/tumour average ([2]; 30 μg DNA/tumour, 2 μg/μl, cationic lipid A 3 nmol/μg DNA): 99 775 RLU/tumour

Molecule: CCCCCCCCCCCCCCCCCCN(CCCCCCCCCCCCCCCCCC)C(=O)CNC(=O)CNCCCNCCCCNCCCN [Lipopolyamine C, H2 N(CH2)3 NH(CH2)4 NH(CH2)3 NHCH2 COGlyN[(CH2)18]2]
Result, RLU/tumour average ([2]; 18.75 μg DNA/tumour, 0.25 μg/μl, cationic lipid C 2 nmol/μg DNA, vehicle 75 mM NaCl): 222 700 RLU/tumour
Result, RLU/tumour average ([2]; 20 μg DNA/tumour, 0.5 μg/μl, cationic lipid C 4 nmol/μg DNA, vehicle 150 mM NaCl, 5% D-glucose): 806 467 RLU/tumour
luciferase activity (3LL cells; Table 11, Lipopolyamine C/DNA charge ratio 4x): 107 289 RLU
luciferase activity (3LL cells; Table 11, Lipopolyamine C/DNA charge ratio 6x): 77 396 RLU
luciferase activity (3LL cells; Table 11, Lipopolyamine C/DNA charge ratio 8x): 14 512 RLU
luciferase activity (3LL cells; Table 12, Lipopolyamine C/DNA charge ratio 4x): 12 037 RLU
luciferase activity (3LL cells; Table 12, Lipopolyamine C/DNA charge ratio 6x): 901 RLU
luciferase activity (3LL cells; Table 12, Lipopolyamine C/DNA charge ratio 8x): 328 RLU

Molecule: CCCCCCCCCCCCCCCCCCN(CCCCCCCCCCCCCCCCCC)C(=O)CNC(=O)C(CCCNCCCN)NCCCN (stereo not shown) [DOGS, dioctadecylamidoglycylspermine]
luciferase activity (NIH 3T3 cells; Table 1, DOGS/DNA charge ratio 0.8x, compaction in 150 mM NaCl, 10 mM HEPES pH 7.1, 0.5 μg pCMV-luc): 32 R.L.U
luciferase activity (NIH 3T3 cells; Table 1, DOGS/DNA charge ratio 1.8x, 150 mM NaCl, 10 mM HEPES pH 7.1, 0.5 μg pCMV-luc): 220 R.L.U
luciferase activity (NIH 3T3 cells; Table 1, DOGS/DNA charge ratio 3x, 150 mM NaCl, 10 mM HEPES pH 7.1, 0.5 μg pCMV-luc): 5400 R.L.U
luciferase activity (NIH 3T3 cells; Table 2, DOGS/DNA charge ratio 0.8x, 5% D-glucose, 150 mM NaCl, 10 mM HEPES pH 7.2, 0.5 μg DNA): 880 R.L.U
luciferase activity (NIH 3T3 cells; Table 2, DOGS/DNA charge ratio 1.8x, 5% D-glucose, 150 mM NaCl, 10 mM HEPES pH 7.2, 0.5 μg DNA): 6600 R.L.U
luciferase activity (NIH 3T3 cells; Table 2, DOGS/DNA charge ratio 3x, 5% D-glucose, 150 mM NaCl, 10 mM HEPES pH 7.2, 0.5 μg DNA): 22000 R.L.U
luciferase activity (NIH3T3 cells [3]): 2150 RLU

More lines, now with the values ahead:

solubility (physchem; pH 2.1, water): 10 mg/mL (≈ 3.37 mM)
Molecule: CC(C)[C@H](NC(=O)[C@H](CCCCN)NC(=O)[C@H](CCCNC(=N)N)NC(=O)[C@H](CCCCN)NC(=O)[C@H](CCCCN)NC(=O)[C@H](CCCCN)NC(=O)[C@@H]1CCCN1)C(=O)NCCC(=O)N[C@@H](CCCCN)C(=O)N[C@H](C(=O)N1CCC[C@H]1C(=O)N[C@@H](CCCCN)C(=O)N[C@@H](CCCCN)C(=O)N[C@@H](C)C(=O)N[C@@H](CCCCN)C(=O)N[C@@H](CCCCN)C(=O)N1CCC[C@H]1C(=O)N[C@@H](CCCCN)C(=O)N[C@H](C(=O)N1CCC[C@H]1C(=O)N[C@@H](CCCCN)C(=O)N[C@@H](CCCCN)C(=O)N[C@@H](C)C(=O)N[C@@H](CCCCN)C(=O)N[C@@H](CCCCN)C(=O)N1CCC[C@H]1C(=O)O)[C@@H](C)O)[C@@H](C)O [nls-H, ProLysLysLysArgLysVal-βAlaLysThrProLysLysAlaLysLysProLysThrProLysLysAlaLysLysPro (COOH) (SEQ ID No.9)]

solubility (physchem; pH 2.1, water): 100 mg/mL (≈ 113 mM)
Molecule: CC(C)[C@H](NC(=O)[C@H](CCCCN)NC(=O)[C@H](CCCNC(=N)N)NC(=O)[C@H](CCCCN)NC(=O)[C@H](CCCCN)NC(=O)[C@H](CCCCN)NC(=O)[C@@H]1CCCN1)C(=O)O [nls, ProLysLysLysArgLysVal]

solubility (physchem; water): 100 mg/mL
Molecule: ATPAKKAAATPAKKAA [N, AlaThrProAlaLysLysAlaAlaAlaThrProAlaLysLysAlaAla (COOH) (SEQ ID No.:3)]

solubility (physchem; pH 2.1, water): 10 mg/mL
Molecule: KTPKKAKKPKTPKKAKKP [H, LysThrProLysLysAlaLysLysProLysThrProLysLysAlaLysLysPro (COOH) (SEQ ID No.:4)]
